Counter-ions that a name gives are not always drawn.
Target: GABA receptor complex (GRC)
Assay: [35S]TBPS binding in rat cerebral cortex P2 homogenate
Details: for IC50: concentration to inhibit 50% of control [35S]TBPS binding, 2 nM [35S]TBPS; for IMAX (maximum inhibition): maximum inhibition of [35S]TBPS binding
Description: To those skilled in the art, it is known that the modulation of [^35S]t-butylbicyclophosphorothionate ([^35S]TBPS) binding is a measure of the potency and efficacy of drugs acting at the GRC, which drugs may be of potential therapeutic value in the treatment of stress, anxiety, and seizure disorders (Squires, R. F., et al., Mol, Pharmacol., 23:326 (1983); Lawrence, L. J., et al., Biochem. Biophys. Res. Comm., 123:1130-1137 (1984); Wood, et al., Pharmacol, Exp. Ther., 231:572-576 (1984)). Several experiments were performed previously to determine the nature of the modulation of [^35S]TBPS as affected by neuroactive steroids. […] Furthermore, these compounds have high potency and efficacy at the GRC, with stringent structural requirements for such activity.
The procedures for performing this assay are fully discussed in: (1) Gee, K. W. et al., European Journal of Pharmacology, 136:419-423 (1987)); and (2) Gee, et al., Molecular Pharmacology 30:218 (1986). These procedures were performed as follows:
Brains from male Sprague-Dawley rats were removed immediately following sacrifice and the cerebral cortices dissected over ice. A P2 homogenate was prepared as previously described (Gee, et al., Molecular Pharmacology 30:218 (1986)). Briefly, the cortices were gently homogenized in 032 M sucrose followed by centrifugation at 1000×g for 10 minutes. The supernatant was collected and centrifuged at 9000×g for 20 minutes. The resultant P2 pellet was suspended as a 10% (original wet weight/volume) suspension in 50 mM Na/K phosphate buffer (pH 7.4) 200 mM NaCl to form the homogenate.
One hundred microliter […] aliquots of the P2 homogenate (0.5 milligrams (mg) protein) were incubated with 2 nanomolar (nM) [^35S]TBPS (70-110 curies/millimole; New England Nuclear, Boston, Mass.) in the presence or absence of the naturally occurring steroids or their synthetic derivatives to be tested. The tested compounds were dissolved in dimethylsulfoxide (Baker Chem. Co., Phillipsburg, N.J.) and added to the incubation mixture in 5 μL aliquots. The incubation mixture was brought to a final volume of 1 mL with buffer. Non-specific binding was defined as binding in the presence of […]. The effect and specificity of GABA (Sigma Chem. Co., St. Louis, Mo.) was evaluated by performing all assays in the presence of GABA plus (+)bicuculline (Sigma Chem. Co.). Incubations maintained at 25° C. for 90 minutes (steady state conditions) were terminated by rapid filtration through glass fiber filters (No. 32, Schleicher and Schuell, Keene, N.H.). Filter-bound radioactivity was quantitated by liquid scintillation spectrophotometry. Kinetic data and compound/[^35S]TBPS dose-response curves were analyzed by nonlinear regression using a computerized iterative procedure to obtain rate constants and IC50 (concentration of compound at which half-maximal inhibition of basal [^35S]TBPS binding occurs) values.
Various compounds were screened to determine their potential as modulators of [^35S]TBPS binding in vitro. These assays were performed in accordance with the above discussed procedures. Based on these assays, we have established the structure-activity requirements for their specific interaction at the GRC and their rank order potency and efficacy. Experimental data obtained in this assay for a number of 3α-hydroxypregnan-20-one derivatives is discussed in Gee, K. W. et al., European Journal of Pharmacology, 136:419-423 (1987) and in U.S. Pat. No. 5,232,917. Table 1 provides IC50 and maximum inhibition (IMAX) measurements for numerous compounds, including examples of compounds disclosed and claimed herein. IC50 is defined as concentration of compounds to inhibit 50% of control [^35S]TBPS binding. It is an indication of a compound's in vitro potency. Maximum inhibition is an indication of a compound's in vitro efficacy.

Structure (SMILES)	IC50	IMAX (maximum inhibition)
CC(C)O[C@H]1C[C@@]2(C)[C@@H](CC[C@H]3[C@@H]4CCC[C@@]4(C)CC[C@@H]32)C[C@@H]1O [3α-Hydroxy-2β-isopropoxy-5α-androstane, 2β-Isopropoxy-3α-hydroxy-5α-androstane]	456 nM	98%
CO[C@H]1CC[C@H]2[C@@H]3CC[C@H]4C[C@H](O)[C@@H](OC(C)C)C[C@]4(C)[C@H]3CC[C@]12C [3α-Hydroxy-2β-isopropoxy-17β-methoxy-5α-androstane]	26 nM	100%
CCCOC1CC2(C)C(CCC3C2CCC2(C)C(C(=O)CSc4cc[n+](C)cc4)CCC32)CC1O (stereo not drawn) [3α-Hydroxy-2β-propoxy-21-(pyrid-4-ylthio)-5α-pregnan-20-one N-methyl iodide]	126 nM	101%
CCCO[C@H]1C[C@@]2(C)[C@@H](CC[C@@H]3[C@@H]2CC[C@]2(C)[C@@H](C(=O)CS(=O)(=O)CCCS(=O)(=O)[O-])CC[C@@H]32)C[C@@H]1O.[Na+] [3α-Hydroxy-2β-propoxy-21-sulfonylpropanesulfonate-5α-pregnan-20-one sodium salt]	1020 nM	101%
CC(=O)c1ccc(C#CC2(O)CCC3C(CCC4C3CCC3(C)CCCC43)C2)cc1 (stereo not drawn) [3α-Hydroxy-3β-(4′-acetylphenyl)ethynyl-5β-19-norandrostane]	492 nM	99%
COCC1(O)CCC2(C)C(CCC3C2CCC2(C)C(C(=O)CS(=O)(=O)c4ccc(N5CCCC5)cc4)CCC32)C1 (stereo not drawn) [3α-Hydroxy-3β-methoxymnethyl-21-(4′-pyrrolidinophenyl)sulfonyl-5α-pregnan-20-one]	208 nM	101%
C#CCO[C@H]1CC[C@H]2[C@@H]3CC[C@H]4C[C@](C)(O)CC[C@]4(C)[C@H]3CC[C@]12C [3α-Hydroxy-3β-methyl-17β-(2-propynyloxy)-5α-androstane]	163 nM	94%
C[C@@]12CCC[C@H]1[C@@H]1CC[C@H]3C[C@H](O)CC[C@]3(C)[C@H]1CC2 [3α-Hydroxy-5α-androstane, reference compound]	494 nM	99%
C[C@@]12CCC[C@H]1[C@@H]1CC[C@@H]3C[C@H](O)CC[C@]3(C)[C@H]1CC2 [3α-Hydroxy-5β-androstane, reference compound]	815 nM	83%
COC1CCC2C3CCC4CC(O)(C(F)(F)F)CCC4(C)C3CCC12C (stereo not drawn) [3α-Hydroxy-17β-methoxy-3β-trifluoromethyl-5α-androstane]	341 nM	100%
CO[C@H]1CC[C@H]2[C@@H]3CC[C@H]4C[C@](C)(O)CC[C@]4(C)[C@H]3CC[C@]12C [3α-Hydroxy-17β-methoxy-3βmethyl-5α-androstane]	97 nM	97%
CC12CCC(O)CC1CCC1C2CCC2(C)C(C(=O)COc3ccc[n+]([O-])c3)CCC12 (stereo not drawn) [3α-Hydroxy-21-(3′-pyridyl)oxy-5β-pregnan-20-one N-oxide]	292 nM	62%
C[C@]12CC[C@@H](O)C[C@H]1CC[C@@H]1[C@@H]2CC[C@]2(C)[C@@H](C(=O)CCc3ccncc3)CC[C@@H]12 [3α-Hydroxy-21-(4-pyridylmethyl)-5β-pregnan-20-one]	187 nM	103%
C[n+]1ccc(SCC(=O)C2CCC3C4CCC5CC(O)CCC5(C)C4CCC23C)cc1 (stereo not drawn) [3α-Hydroxy-21-(4′-pyridyl)thio-5β-pregnan-20-one N-methyl io] [3α-hydroxy-21-(pyrid-4-ylthio)-5β-pregnan-20-one N-methyl iodide]	263 nM	53%
C[C@]12CC[C@@H](O)C[C@H]1CC[C@@H]1[C@@H]2CC[C@]2(C)[C@@H](C(=O)COc3ccncc3)CC[C@@H]12 [3α-Hydroxy-21-(pyrid-4-yloxy)-5β-pregnan-20-one]	45 nM	76%
C[n+]1ccc(SCC(=O)C2CCC3C4CCC5CC(O)CCC5(C)C4CCC23C)cc1 (stereo not drawn) [3α-Hydroxy-21-(pyrid-4-ylthio)-5α-pregnan-20 -one N-methyl i] [3α-Hydroxy-21-(pyrid-4-ylthio)-5α-pregnan-20-one N-methyl iodide]	188 nM	100%
CC12CCC(O)CC1CCC1C2CCC2(C)C(C(=O)CS(=O)(=O)O)CCC12 (stereo not drawn) [3α-Hydroxy-21-sulfonic acid-5β-pregnan-20-one 21-sodium salt]	732 nM	62%
CCCOC1CC2(C)C(CCC3C2CCC2(C)C(C(=O)COc4ccc([N+](C)(C)C)cc4)CCC32)CC1O (stereo not drawn) [3α-hydroxy-2β-propoxy-21-(4′-N,N,N-trimethylammoniumphenoxy)-5α-pregnan-20-one iodide salt]	129 nM	92%
CCCO[C@H]1C[C@@]2(C)[C@@H](CC[C@@H]3[C@@H]2CC[C@]2(C)[C@@H](C(=O)CSc4ccncc4)CC[C@@H]32)C[C@@H]1O [3α-hydroxy-2β-propoxy-21-(pyrid-4-ylthio)-5α-pregnan-20-one]	14 nM	98%
CCCO[C@H]1C[C@@]2(C)[C@@H](CC[C@@H]3[C@@H]2CC[C@]2(C)[C@@H](C(=O)CSCCCS(=O)(=O)[O-])CC[C@@H]32)C[C@@H]1O.[Na+] [3α-hydroxy-2β-propoxy-21-thiopropanesulfonate-5α-pregnan-20-one sodium salt]	67 nM	101%
COCC1(O)CCC2(C)C(CCC3C2CCC2(C)C(C(=O)CSc4ccncc4)CCC32)C1 (stereo not drawn) [3α-hydroxy-3β-methoxymethyl-21-(pyrid-4-ylthio)-5α-pregnan-20-one]	38 nM	106%
C[n+]1cccc2cc(OCC(=O)C3CCC4C5CCC6CC(C)(O)CCC6(C)C5CCC34C)ccc21 (stereo not drawn) [3α-hydroxy-3β-methyl-21-(quinolin-6-yloxy)-5α-pregnan-20-one N-methyl iodide]	252 nM	102%
C[C@@]1(O)CC[C@@]2(C)[C@@H](CC[C@@H]3[C@@H]2CC[C@]2(C)[C@@H](C(=O)COc4ccc5ncccc5c4)CC[C@@H]32)C1 [3α-hydroxy-3β-methyl-21-(quinolin-6-yloxy)-5α-pregnan-20-one]	76 nM	96%
CC(=O)c1ccc(C#C[C@@]2(O)CC[C@@]3(C)[C@H](CC[C@@H]4[C@@H]3CC[C@]3(C)[C@@H](C(=O)CSc5ccncc5)CC[C@@H]43)C2)cc1 [3β-(4′-acetylphenyl)ethynyl-3α-hydroxy-21-(pyrid-4ylthio)-5β-pregnan-20-one]	29 nM	94%
C#CC1(O)CCC2(C)C(CCC3C2CCC2(C)C(C(=O)C[S+]([O-])CCCO)CCC32)C1 (stereo not drawn) [3β-Ethynyl-3α-hydroxy-21-hydroxpropylsulfinyl-5β-pregnan-20-one]	782 nM	107%
C#C[C@@]1(O)CC[C@@]2(C)[C@H](CC[C@@H]3[C@@H]2CC[C@]2(C)[C@@H](C(=O)CSCCO)CC[C@@H]32)C1 [3β-Ethynyl-3α-hydroxy-21-hydroxyethylthio-5β-pregnan-20-one]	180 nM	103%
C#C[C@@]1(O)CC[C@@]2(C)[C@H](CC[C@@H]3[C@@H]2CC[C@]2(C)[C@@H](C(=O)CS(=O)(=O)CCCO)CC[C@@H]32)C1 [3β-Ethynyl-3α-hydroxy-21-hydroxypropylsulfonyl-5β-pregnan-20-one]	194 nM	107%

Reference: patent US6780853B1, “Neuroactive steroids of the androstane and pregnane series” (priority 1995, dated 2004)
